Results from US4321384A, “Antihypertensive agents” (American Home Products Corporation, priority 1981, dated 1982).

What was measured:
[1] = tested on: rabbit aortic strips; assay: Ca+2 antagonism: relaxation of potassium-contracted rabbit aortic strips; assay type: cell-based; conditions: Oryctolagus cuniculus; 10^-5 M bath concentration; strips contracted with 100 millimoles potassium ion; read-out: percent relaxation (P.R.)
Procedure: After a stable active tension has developed in the strip, as measured by Statham UC-2 force transducers and recorded on an eight channel Beckman Dynograph Polygraphic Recorder, an amount of the antagonist was added to the organ bath to make a 10^-5 molar concentration of antagonist. The […] effect, expressed as percent relaxation, was taken from the mean of at least two experiments. […] A Ca^+2 antagonist producing a 20 percent relaxation of aortic tissue in this test procedure at a 10^-5 molar bath concentration of the antagonist, generally produces a significant reduction in blood pressure when a sufficient amount is given to the spontaneously hypertensive rat. The following examples illustrate the preparation of a representative number of compounds of this invention. After each example, the Ca^+2 antagonist activity of the compound is presented in terms of percent relaxation (P.R.) at the stated concentration. Similarly, the antihypertensive activity is reported in terms of millimeters mercury (mmHg) blood pressure (B.P.) reduction at the stated time post 50 mg/kg oral dosing.

[2] = tested on: spontaneously hypertensive rats; assay: Systolic blood pressure lowering in spontaneously hypertensive rats; assay type: in vivo, rat; conditions: 1.5 hours post dose 25 mg/kg

`COC(=O)C1=C(C)NC2=C(C(=O)CNC2)C1c1cccc([N+](=O)[O-])c1` (centres unmarked) [Example 13, 1,4,5,6,7,8-Hexahydro-2-methyl-4-(3-nitrophenyl)-5-oxo-1,7-naphthyridine-3-carboxylic acid methyl ester] was tested, and the inhibition at 10 µM [1] was 86.5% and the “blood pressure (B.P.) reduction” value [2] was -58 mmHg.
